Laboratory results taken from article PMC7345083, “Vancomycin-Lipopeptide Conjugates with High Antimicrobial Activity on Vancomycin-Resistant Enterococci” (Pharmaceuticals, 2020).
In brackets after ≈: the same amount, converted by molar mass.

How the values were obtained:
[1] = system: Enterococcus casseliflavus ATCC 700327 (vanC); type: cell-based; settings: ATCC 700327, 18 h
Method: (§1) The minimum inhibitory concentration (MIC) was determined by microdilution following the EUCAST and CLSI guidelines via the broth microdilution assay on a 96-well plate. Substances were dissolved in saline solution (0.9%) at a concentration equimolar to 1.28 mg/mL vancomycin. With an increasing hydrophobicity, some substances had to be pre-dissolved in DMSO. The final concentration of DMSO remained below 1.5% and was compared to the DMSO control (no antimicrobial effect was observed up to the highest concentration tested (10%)). All substances were serially diluted on the 96-well plate using Mueller-Hinton-Broth II (cation adjusted). Vancomycin was always used as a control. For bacterial loading, an overnight culture of the referring strain was taken and adjusted to a turbidity corresponding to 10^8 cfu/mL. The bacterial suspension was further diluted to load a bacterial number of 10^6 cfu/mL on the 96-well plate and incubate it for 18 h at 35 ± 1 °C, as described before. MIC was defined as the lowest concentration without visible growth.

[2] = system: Enterococcus faecium UL602570 (vanA, clinical isolate); type: cell-based; settings: UL602570 (vanA, clinical isolate, 18 h)
Method: as §1

[3] = system: E. faecium ATCC 51559 (vanA); type: cell-based, Enterococcus faecium; settings: ATCC 51559, 18 h
Method: as §1

[4] = system: E. faecalis ATCC 51299 (vanB); type: cell-based, Enterococcus faecalis; settings: ATCC 51299, 18 h
Method: as §1

| Compound | MIC median [1] | MIC range [1] | MIC median [2] | MIC range [2] | MIC median [3] | MIC range [3] | MIC median [4] |
| --- | --- | --- | --- | --- | --- | --- | --- |
| CCCCCCCCCCCC(=O)N[C@@H](CCCNC(=N)N)C(=O)N[C@@H](CCCNC(=N)N)C(=O)N[C@@H](CCCNC(=N)N)C(=O)N[C@@H](CSC1CC(=O)N(CC2CCC(C(=O)NCCNC(=O)[C@H]3NC(=O)[C@H]4NC(=O)[C@H](NC(=O)[C@@H]5NC(=O)[C@H](CC(N)=O)NC(=O)[C@H](NC(=O)[C@@H](CC(C)C)NC)[C@H](O)c6ccc(c(Cl)c6)Oc6cc5cc(c6O[C@@H]5O[C@H](CO)[C@@H](O)[C@H](O)[C@H]5O[C@H]5C[C@](C)(N)[C@H](O)[C@H](C)O5)Oc5ccc(cc5Cl)[C@H]4O)c4ccc(O)c(c4)-c4c(O)cc(O)cc43)CC2)C1=O)C(N)=O (stereo partly drawn) [VC-R3C-C12] | 4 µg/mL (≈ 1.61 µM) | 1 to 4 µg/mL | 4.84 µg/mL (≈ 1.95 µM) | 2.42 to 4.84 µg/mL | 4.84 µg/mL (≈ 1.95 µM) | 4.84 to 9.69 µg/mL | 4 µg/mL (≈ 1.61 µM) |
| CCCCCCCCCCCCCCCC(=O)N[C@@H](CCCNC(=N)N)C(=O)N[C@@H](CCCNC(=N)N)C(=O)N[C@@H](CCCNC(=N)N)C(=O)N[C@@H](CSC1CC(=O)N(CC2CCC(C(=O)NCCN[C@@]3(C)C[C@H](O[C@H]4[C@H](Oc5c6cc7cc5Oc5ccc(cc5Cl)[C@@H](O)[C@@H](NC(=O)[C@@H](CC(C)C)NC)C(=O)N[C@@H](CC(N)=O)C(=O)N[C@H]7C(=O)N[C@H]5C(=O)N[C@H](C(=O)N[C@H](C(=O)O)c7cc(O)cc(O)c7-c7cc5ccc7O)[C@H](O)c5ccc(c(Cl)c5)O6)O[C@H](CO)[C@@H](O)[C@@H]4O)O[C@@H](C)[C@H]3O)CC2)C1=O)C(N)=O (stereo partly drawn) [VV-R3C-C16] | – | – | 2.50 µg/mL (≈ 0.985 µM) | 2.50 to 3.50 µg/mL | – | – | – |
| CCCCCCCCCCCCCCCCCC(=O)N[C@@H](CCCNC(=N)N)C(=O)N[C@@H](CCCNC(=N)N)C(=O)N[C@@H](CCCNC(=N)N)C(=O)N[C@@H](CSC1CC(=O)N(CC2CCC(C(=O)NCCN[C@@]3(C)C[C@H](O[C@H]4[C@H](Oc5c6cc7cc5Oc5ccc(cc5Cl)[C@@H](O)[C@@H](NC(=O)[C@@H](CC(C)C)NC)C(=O)N[C@@H](CC(N)=O)C(=O)N[C@H]7C(=O)N[C@H]5C(=O)N[C@H](C(=O)N[C@H](C(=O)O)c7cc(O)cc(O)c7-c7cc5ccc7O)[C@H](O)c5ccc(c(Cl)c5)O6)O[C@H](CO)[C@@H](O)[C@@H]4O)O[C@@H](C)[C@H]3O)CC2)C1=O)C(N)=O (stereo partly drawn) [VV-R3C-C18] | – | – | 2.54 µg/mL (≈ 0.99 µM) | 1.27 to 2.54 µg/mL | – | – | – |
| CN[C@H](CC(C)C)C(=O)N[C@H]1C(=O)N[C@@H](CC(N)=O)C(=O)N[C@H]2C(=O)N[C@H]3C(=O)N[C@H](C(=O)N[C@H](C(=O)O)c4cc(O)cc(O)c4-c4cc3ccc4O)[C@H](O)c3ccc(c(Cl)c3)Oc3cc2cc(c3O[C@@H]2O[C@H](CO)[C@@H](O)[C@H](O)[C@H]2O[C@H]2C[C@](C)(NCCNC(=O)C3CCC(CN4C(=O)CC(SC[C@H](NC(=O)[C@H](CCCNC(=N)N)NC(=O)[C@H](CCCNC(=N)N)NC(=O)[C@@H](N)CCCNC(=N)N)C(N)=O)C4=O)CC3)[C@H](O)[C@H](C)O2)Oc2ccc(cc2Cl)[C@H]1O (stereo partly drawn) [VV-R3C] | – | – | 4.35 µg/mL (≈ 1.89 µM) | 4.35 to 8.69 µg/mL | – | – | – |
| CCCCCCCCCCCC(=O)N[C@@H](CCCNC(=N)N)C(=O)N[C@@H](CCCNC(=N)N)C(=O)N[C@@H](CCCNC(=N)N)C(=O)N[C@H](Cc1ccc(O)cc1)C(=O)N[C@@H](CSC1CC(=O)N(CC2CCC(C(=O)NCCN[C@@]3(C)C[C@H](O[C@H]4[C@H](Oc5c6cc7cc5Oc5ccc(cc5Cl)[C@@H](O)[C@@H](NC(=O)[C@@H](CC(C)C)NC)C(=O)N[C@@H](CC(N)=O)C(=O)N[C@H]7C(=O)N[C@H]5C(=O)N[C@H](C(=O)N[C@H](C(=O)O)c7cc(O)cc(O)c7-c7cc5ccc7O)[C@H](O)c5ccc(c(Cl)c5)O6)O[C@H](CO)[C@@H](O)[C@@H]4O)O[C@@H](C)[C@H]3O)CC2)C1=O)C(N)=O (stereo partly drawn) [VV-R3yC-C12] | – | – | 1.02 µg/mL (≈ 0.386 µM) | 0.25 to 2.03 µg/mL | – | – | – |
